# What was measured:
# [1] = In vivo pharmacokinetic study in rats, oral DUT without or with KET; design: species or system rat; conditions: male, Sprague-Dawley, rat, plasma, po, 5 mg/kg, n = 4
# From the text: The animal experiment protocols used in the present study were approved by the Pusan National University-Institutional Animal Care and Use Committee for scientific care and ethical procedures (Busan, Korea; approval date: 01/05/2018; approval number: PNU-2018-1848). Male Sprague–Dawley rats (8-week-old; approximately 250 g) were purchased from DBL Co., Ltd. (Incheon, Korea). The rats were acclimatized in a clean room of the Laboratory Animal Center of Pusan National University (Busan, Korea) for 1 week. Then, they were fasted for 12 h prior to the pharmacokinetic experiment and then anesthetized by intramuscular injection of Zoletil at a dose of 20 mg/kg. The femoral vein and artery of the rats were cannulated with a polyethylene tube (BD Medical; Franklin Lakes, NJ, USA). At approximately 4–6 h after the surgery for cannulation, an intravenous dose of DUT (2.5 mg/kg) simultaneously with or without intravenous KET ([…]) was administered to the rats. Drugs were dissolved in a vehicle consisting of dimethyl sulfoxide, ethanol, and polyethylene glycol 400 at a ratio of 10:5:85 (v/v/v). Blood (approximately 200 μL) was collected in heparin pre-treated microcentrifuge tubes via the femoral artery at 0, 1, 5, 15, 30, 60, 120, 180, 240, 360, 480, and 1200 min after the intravenous dose and at 0, 5, 15, 30, 60, 120, 150, 180, 240, 360, 480, and 1200 min after the oral dose. Following centrifugation of the blood samples at 3000× g at 4 °C for 10 min [19], 100 μL aliquots of plasma were stored at −80 °C.
# (§1) The half maximal inhibitory concentration (IC50) of KET for the inhibition of the DUT metabolism was determined by the nonlinear regression analysis (GraphPad Prism ver. 5.01; GraphPad Software Inc., San Diego, CA, USA) based on the following Hill equation: y = Min + Max−Min/1 + (x/IC50)^-P where Max and Min are the initial and final y value, respectively, and the exponent P represents the Hill coefficient. Peak plasma concentration (Cmax) and time to reach Cmax (Tmax) were read directly from the observed data. Non-compartmental analysis was conducted to estimate pharmacokinetic parameters such as total area under plasma concentration versus time curve from time zero to time of last sampling (AUClast), total area under plasma concentration versus time curve from time zero to infinity (AUCinf), total plasma clearance (CL), volume of distribution at steady state (Vss), and terminal half-life (t1/2) using the NCA200 and 201 models of WinNonlin ver. 3.1 (Certara USA Inc., Princeton, NJ, USA).
# [2] = In vivo pharmacokinetic study in rats, intravenous DUT without or with intravenous KET; design: species or system rat; conditions: male, Sprague-Dawley, rat, plasma, iv, 2.5 mg/kg, n = 4
# From the text: The animal experiment protocols used in the present study were approved by the Pusan National University-Institutional Animal Care and Use Committee for scientific care and ethical procedures (Busan, Korea; approval date: 01/05/2018; approval number: PNU-2018-1848). Male Sprague–Dawley rats (8-week-old; approximately 250 g) were purchased from DBL Co., Ltd. (Incheon, Korea). The rats were acclimatized in a clean room of the Laboratory Animal Center of Pusan National University (Busan, Korea) for 1 week. Then, they were fasted for 12 h prior to the pharmacokinetic experiment and then anesthetized by intramuscular injection of Zoletil at a dose of 20 mg/kg. The femoral vein and artery of the rats were cannulated with a polyethylene tube (BD Medical; Franklin Lakes, NJ, USA). At approximately 4–6 h after the surgery for cannulation, an intravenous dose of DUT (2.5 mg/kg) simultaneously with or without intravenous KET (20 mg/kg) or an oral dose of DUT (5 mg/kg) simultaneously with or without intravenous KET (20 mg/kg) was administered to the rats. Drugs were dissolved in a vehicle consisting of dimethyl sulfoxide, ethanol, and polyethylene glycol 400 at a ratio of 10:5:85 (v/v/v). Blood (approximately 200 μL) was collected in heparin pre-treated microcentrifuge tubes via the femoral artery at 0, 1, 5, 15, 30, 60, 120, 180, 240, 360, 480, and 1200 min after the intravenous dose and at 0, 5, 15, 30, 60, 120, 150, 180, 240, 360, 480, and 1200 min after the oral dose. Following centrifugation of the blood samples at 3000× g at 4 °C for 10 min [19], 100 μL aliquots of plasma were stored at −80 °C.
# as §1
# [3] = Stability in rat plasma (QC samples); type: in vitro ADME; conditions: n = 5; for Stability (percent drug remaining), Autosampler: 10 °C for 24 h in the autosampler; for Stability (percent drug remaining), Bench-Top: room temperature for 3 h; for Stability (percent drug remaining), Freeze-Thaw: three freezing and thawing cycles; for Stability (percent drug remaining), Long-Term: −20 °C for 30 days
# Description: The bioanalytical method proposed herein for the simultaneous determination of DUT and H-DUT was fully validated on the basis of the US FDA guideline. The selectivity of the method was evaluated by comparing chromatograms of the analytes (DUT, H-DUT, and internal standard) in blank rat plasma, blank rat plasma spiked with the analytes, and rat plasma sample obtained from the in vivo rat pharmacokinetic study. Further, the existence of potential interferences at the acquisition windows of the analytes was checked. The linearity of the method was evaluated by adding increasing amounts of DUT and H-DUT to the blank plasma. To construct calibration curves (n = 5), the peak area ratios of DUT or H-DUT to the internal standard (y-axis) were plotted against the nominal concentration ratios of DUT or H-DUT (10–1000 ng/mL) to the internal standard (400 ng/mL) (x-axis), and then, linear regression analysis was performed. The sensitivity was assessed by estimating the LLOQ (signal-to-noise [S/N] ratio > 5). The peaks of the analytes at the LLOQ should be discrete, identifiable, and reproducible with acceptable precision (<20%) and accuracy (within 80–120%). The extraction recovery, matrix effect, dilution integrity, and stability (under bench-top, freeze–thaw, post-preparative, and long-term conditions) in addition to the intra-assay (five different samples) and inter-assay (five different runs) precision and accuracy for each analyte were determined at the LLOQ and three different QC levels as described in the US FDA guidelines and in previous studies.
# DUT metabolism in RLM = assay: Inhibition of DUT metabolism by KET in RLM; type: in vitro ADME, rat; conditions: RLM 1 mg/mL, DUT 5 μM, 90 min
# Description: (§2) To investigate the metabolic interaction potential between DUT and KET, the disappearance of DUT (5 μM) in RLM and HLM was determined under the absence and presence of KET at various concentrations ranging from 1 to 5000 nM. A microsomal reaction mixture was prepared as follows (total volume: 0.2 mL): 1 mM NADPH, 10 mM MgCl2, substrate (DUT), and inhibitor (KET), RLM or HLM (1 mg/mL), and 50 mM phosphate buffer. […] The unbound fractions of DUT in rat plasma, RLM, human plasma, and HLM were measured using a rapid equilibrium dialysis (RED) device (Thermo Fisher Scientific, Inc., Waltham, MA, USA) as described in a previous study. […] The fraction unbound was calculated as the ratio of the drug concentrations in the “buffer” chamber to those in the “sample” chamber. The blood-to-plasma concentration ratio (RB) of DUT was determined as described previously. […] The concentrations of DUT in the plasma sample were determined by the validated HPLC analysis.
# (§3) The half maximal inhibitory concentration (IC50) of KET for the inhibition of the DUT metabolism was determined by the nonlinear regression analysis (GraphPad Prism ver. 5.01; GraphPad Software Inc., San Diego, CA, USA) based on the following Hill equation: y = Min + Max−Min/1 + (x/IC50)^-P where Max and Min are the initial and final y value, respectively, and the exponent P represents the Hill coefficient. […]
# [4] = design: method as in ref 12 (supplement); conditions: ref 12 (supplement); cited from earlier work
# DUT metabolism in HLM = assay: Inhibition of DUT metabolism by KET in HLM; type: in vitro ADME, human
# Description: as §2, §3
# [5] = design: method as in ref 13 (supplement); conditions: ref 13 (supplement); cited from earlier work
# [6] = oral DUT 5 mg/kg with oral KET (20 mg/kg)
# [7] = intravenous DUT 2.5 mg/kg with intravenous KET 20 mg/kg
# [8] = intravenous DUT 2.5 mg/kg, DUT alone
compound,measurement,setting,value
"C[C@]12C=CC(=O)N[C@@H]1[C@H](O)C[C@@H]1[C@@H]2CC[C@]2(C)[C@@H](C(=O)Nc3cc(C(F)(F)F)ccc3C(F)(F)F)CC[C@@H]12 [H-DUT, 6β-hydroxydutasteride]",AUC(0-t),[1]; [6],630 ng·h/mL
same,Cmax,[1]; [6],62.8 ± 12.3 ng/mL
same,AUC(0-t),"[1]; oral DUT 5 mg/kg, DUT alone",1590 ng·h/mL
same,Cmax,"[1]; oral DUT 5 mg/kg, DUT alone",103 ± 20 ng/mL
same,AUC(0-t),[2]; [7],1070 ng·h/mL
same,Cmax,[2]; [7],116 ± 4 ng/mL
same,AUC(0-t),[2]; [8],2130 ng·h/mL
same,Cmax,[2]; [8],141 ± 17 ng/mL
same,"Stability (percent drug remaining), Autosampler",[3]; HQC 750 ng/mL,104 ± 1%
same,"Stability (percent drug remaining), Bench-Top",[3]; HQC 750 ng/mL,101 ± 0%
same,"Stability (percent drug remaining), Freeze-Thaw",[3]; HQC 750 ng/mL,101 ± 1%
same,"Stability (percent drug remaining), Long-Term",[3]; HQC 750 ng/mL,106 ± 1%
same,"Stability (percent drug remaining), Autosampler",[3]; LLOQ 10 ng/mL,103 ± 4%
same,"Stability (percent drug remaining), Bench-Top",[3]; LLOQ 10 ng/mL,102 ± 4%
same,"Stability (percent drug remaining), Freeze-Thaw",[3]; LLOQ 10 ng/mL,101 ± 7%
same,"Stability (percent drug remaining), Long-Term",[3]; LLOQ 10 ng/mL,96.1 ± 4.7%
same,"Stability (percent drug remaining), Autosampler",[3]; LQC 30 ng/mL,97.1 ± 0.8%
same,"Stability (percent drug remaining), Bench-Top",[3]; LQC 30 ng/mL,104 ± 9%
same,"Stability (percent drug remaining), Freeze-Thaw",[3]; LQC 30 ng/mL,99.0 ± 2.3%
same,"Stability (percent drug remaining), Long-Term",[3]; LQC 30 ng/mL,95.1 ± 3.7%
same,"Stability (percent drug remaining), Autosampler",[3]; MQC 150 ng/mL,103 ± 4%
same,"Stability (percent drug remaining), Bench-Top",[3]; MQC 150 ng/mL,99.0 ± 1.4%
same,"Stability (percent drug remaining), Freeze-Thaw",[3]; MQC 150 ng/mL,103 ± 3%
same,"Stability (percent drug remaining), Long-Term",[3]; MQC 150 ng/mL,98.7 ± 1.5%
"CC(=O)N1CCN(c2ccc(OCC3COC(Cn4ccnc4)(c4ccc(Cl)cc4Cl)O3)cc2)CC1 (centres unmarked) [KET, ketoconazole]",IC50,DUT metabolism in RLM,77.3 ± 11.1 nM
same,"fu,mic,KET, unbound fraction in HLM",[4],0.97
same,IC50,"DUT metabolism in HLM; HLM 1 mg/mL, DUT 5 μM, 90 min",54.9 ± 15.6 nM
same,Ki,"DUT metabolism in HLM; HLM, fu,mic,KET × IC50 / (S/Km + 1), competitive inhibition assumed, read-out: Ki (unbound inhibition constant)",48.5 nM
same,"Imax,u, maximum unbound plasma concentration",[5],0.0913 µM

# — PMC6956158, “In Vitro and In Vivo Assessment of Metabolic Drug Interaction Potential of Dutasteride with Ketoconazole” (Pharmaceutics, 2019)
